A short description of one data set: in vivo. Type of data set: in vivo. The conditions noted are these: in vivo; for LD50: intravenous use according to b33, values in brackets = confidence range, read-out: akute Toxizität Ratte, LD50; for selectivity ratio: therapeutic breadth, read-out: Q LD50/ED50.
In the next data set the test system is CaCl2-Arrhythmie. The experiment in a line: CaCl2-induced arrhythmia in the rat (antifibrillatory effect). Type of data set: in vivo, Ratte. The conditions noted are these: for ED50: read-out: CaCl2-Arrhythmie Ratte, ED50.
Data set [1] concerns Ratte. Particulars: rat, values in brackets = confidence range, cited from earlier work.
The subject of data set [2] is Ratte. The data set is described as follows: in vivo. Type of data set: in vivo.
Where [3] appears, read: rat, antifibrillatory effect, values in brackets = confidence range.
The mark [4] stands for this setting: rat LD50 / rat CaCl2-arrhythmia ED50.

Data on six compounds can be found in EP0515796A1, “5-Aminoacyl-5,10-dihydro-11H-dibenzo(b,e)(1,4)diazepin-11-ones, processes for their preparation, and their use as medicaments” (ARZNEIMITTELWERK DRESDEN GmbH, priority 1991, dated 1992).

Structures can show the parent of a compound that is named as a salt. Where two headings read alike, the source gives them in different places. Marks after values point to notes of the source that are not given here.

For the compound `C=CC1CN2CCC1CC2C(O)c1ccnc2ccc(OC)cc12` (stereo not drawn) [Chinidin], the LD50 in the data set “in vivo” (rat) was 48 mg/kg. Further, the selectivity ratio in the data set “in vivo” (rat, rat LD50 / rat CaCl2-arrhythmia ED50) is 18. In addition, the ED50 with CaCl2-Arrhythmie (setting [3]) was determined as 2.7 mg/kg.
For the compound `CC(C)N(CCC(C(N)=O)(c1ccccc1)c1ccccn1)C(C)C` (racemic) [Disopyramid], the selectivity ratio in the data set “in vivo” (rat, worked out with the cited LD50 of m (male) rats) stood at 55; in the data set “in vivo” (rat, worked out with the cited LD50 of w (female) rats), 50. For the same compound, in the data set on CaCl2-Arrhythmie (Rattus norvegicus), the ED50 was 1.3 mg/kg. The “akute Toxizität Ratte, LD50” value is recorded as “m 72 (60 - 80) * mg/kg” in the data set with Ratte [1] (m (male), literature value from the Palpitin (R) brochure, Gedeon Richter) and “w 66 (50 - 110) mg/kg” in the data set on Ratte [1] (w (female), literature value (footnote mark printed only on the m line)).
On to `CN1C(=O)c2ccccc2N(C(=O)CCCCCNC2CCCCC2)c2ccc(Cl)cc21` [Beispiel 8, 8-Chlor-5-(6-cyclohexylamino-hexanoyl)-5,10-dihydro-10-methyl-11H-dibenzo/b,e//1,4/diazepin-11-on.HCl], for which the LD50 in “in vivo” (rat) was 35 mg/kg. The selectivity ratio in “in vivo” (setting [4]) turned out to be 106. Further, the median effective dose (ED50) in the data set with CaCl2-Arrhythmie (setting [3]) was found to be 0.33 mg/kg.
On to `CCN(CC)CC(=O)Nc1c(C)cccc1C` [Lidokain], for which the ED50 in the data set on CaCl2-Arrhythmie (setting [3]) is 3.1 mg/kg.
For the compound “5-(6-Diethylamino-hexanoyl)-5,10-dihydro-10-methyl-11H-dibenzo/b,e//1,4/diazepin-11-on.HCl.0,5 H₂O [Beispiel 4]”, the “akute Toxizität Ratte, LD50” value in the data set on Ratte [2] (rat, intravenous use according to b33, values in brackets = confidence range) is 78 (73 - 84) mg/kg. Further, in the data set on Ratte [2] (therapeutic breadth, rat LD50 / rat CaCl2-arrhythmia ED50), the “Q LD50/ED50” value is listed as 2364. In addition, the “CaCl2-Arrhythmie Ratte, ED50” value with CaCl2-Arrhythmie (setting [3]) is on record as 0,033 (0,011 - 0,10) mg/kg.
`CN1C(=O)c2ccccc2N(C(=O)CCCCCNC2CCCCC2)c2ccccc21` [Beispiel 7, 5-(6-Cyclohexylamino-hexanoyl)-5,10-dihydro-10-methyl-11H-dibenzo/b,e//1,4/diazepin-11-on.HCl]: in the data set “in vivo” (rat), the LD50 came to 32 mg/kg. Further, in the data set “in vivo” (setting [4]), the selectivity ratio was determined as 1280. In addition, the ED50 in the data set on CaCl2-Arrhythmie (setting [3]) is 0.025 mg/kg.

In general, LD50 refers to the dose expected to kill half of the subjects tested. As a reminder, the ED50 is the midpoint of the dose-response relation.
